PMC12020424, “Identification and Validation of Cyclic Peptides with Mucin-Selective, Location-Specific Binding in the Gastrointestinal Tract” (ACS Nano, 2025)
Bridge positions count the residues as written; N and C are the ends. Ends that are not written are not given here.

Tests used:
[1] = system: MUC2-containing intestinal tissue (jejunal); experiment: Ex vivo fluorescent binding to small intestine tissue; parameters: species or system porcine; conditions: MUC2-selective peptides to small intestine
Source text: (§1) After identifying the peptide hits for each mucin, we tested their binding in an ex vivo setting (Figure S1), evaluating their interaction with mucin-containing porcine tissue and semiquantitatively representing it through fluorescent imaging (Figure 3a). The cyclic peptides were synthesized and conjugated to a fluorophore, Alexa Fluor 647 (AF647), at the N-terminus to allow fluorescent imaging to be used to semiquantitatively measure the peptides’ ex vivo tissue binding, compared to free AF647 and AF647 conjugated to wheat germ agglutinin (WGA), a known lectin for glycoproteins.[40] […] Porcine GI tissue was used due to its similarity in mucin expression compared to human GI tissue and its capacity to source large surface areas of tissue for experiments.[41],[42] Representative IVIS images are shown in Figure 3b-e, where the first four columns represent the four identified peptides (M2.1–M2.4 in Figure 3b,c, M5.1–M5.4 in Figure 3d,e), the fifth column represents WGA-AF647, and the sixth column represents AF647. The “score” results for the peptide ligands are presented in Figure 3f,g for the mucins of interest, with Tables S2–S5 and Figure S3 detailing results for the other tissues (the equation for calculating the “score” is found in the Materials and Methodssection). […] We also examined selectivity by incubating peptides on nontarget tissues. Figure 3h,i depicts the “selectivity” results for the MUC2-selective and MUC5AC-selective peptides, respectively. Selectivity was calculated by determining the ratio of the “score” for a particular mucin to the sum of the “scores” for all mucins (see the Materials and Methods section for the equation used).
(§2) The top-performing hits from phage display were tested on ex vivo segments of porcine mucin-containing tissues (jejunal, stomach, and esophageal tissues) obtained from local abattoirs or laboratory-maintained pigs. Tissue was used either immediately after acquisition or after storage at −80 °C; tissue was used at most 1 week after acquisition and storage at −80 °C. After acquisition and equilibration to room temperature, the tissue was washed twice with 25 mL (each) of cold 1× PBS to remove undigested food and other debris. After washing and cleaning, the tissue was mounted between two magnetic plates with holes corresponding to a 48-well plate, as previously described,[72] such that the luminal side of the tissue was facing up (Figure S1). After the tissue was mounted, the amount of peptide/protein corresponding to 40 μg of AF647 was suspended in 200 μL of 1× PBS and added to the wells created by the magnetic plates. This was done 3× for each formulation to perform the experiment in triplicate. In addition, plain 1× PBS was added to one well to serve as the background measurement. After the peptides were added, the plate setup was covered with aluminum foil and allowed to incubate for 1 h at room temperature with gentle agitation (50 rpm). After incubation, the nonbinding peptides were removed by pouring out the solutions onto a clean paper towel, and the setup was washed three times by adding 200 μL of 1× PBS to each well and gently agitating the setup for 30 s before removing the washing solution. After washing was complete, fluorescence imaging was performed using an IVIS Spectrum fluorescent imaging system (PerkinElmer), with an automatically calculated exposure time (usually ∼1 s), a 20 cm × 20 cm field of view, and an excitation/emission of 640/680 nm, respectively. The imaging results were analyzed using Living Image software to calculate the total fluorescence intensity for each well, and the results for each hit or control were averaged across different wells. The negative control used was unconjugated AF647, while the positive control was WGA-AF647, since WGA is a known lectin that binds glycoproteins.
(§3) To better account for tissue-to-tissue variability, the results for each trial were reported as scores rather than using the raw fluorescence intensity. […]

[2] = system: MUC5AC-containing stomach tissue; experiment: Ex vivo fluorescent binding to stomach tissue; parameters: species or system porcine; conditions: MUC5AC-selective peptides to stomach
Source text: as §1
as §2, with “After the peptides were added, the plate setup was covered with aluminum foil and allowed to incubate for 1 h at room temperature with gentle agitation (50 rpm). After incubation, the nonbinding peptides were removed by pouring out the solutions onto a clean paper towel, and the setup was washed three times by adding 200 μL of 1× PBS to each well and gently agitating the setup for 30 s before removing the washing solution.” left out, “The negative control used was unconjugated AF647, while the positive control was WGA-AF647, since WGA is a known lectin that binds glycoproteins.” left out
as §3

small intestine = experiment: In vivo gastrointestinal localization, small intestine; parameters: species or system Sprague–Dawley rats; conditions: AF647 conjugate, oral gavage, 1 mg/kg, fasted rats, n = 6, 6 h, segment fluorescence / sum of esophagus, stomach
Procedure: To measure the gastrointestinal localization of these peptides in vivo, peptides M2.3 and M5.2 with conjugated AF647 dye (as a model drug) were administered via oral gavage to fasted Sprague–Dawley rats, along with unconjugated AF647 dye and WGA-AF647. After 6 h, localization was measured by using fluorescent imaging on the rats’ GI tracts. The major results of the total binding fluorescence and organ-specific binding fluorescence for M2.3, as well as the total binding fluorescence and organ-specific binding fluorescence for M5.2, along with results for the AF647 and WGA-AF647 in each case, are shown in Figure 4, with more detailed results found in Figure S9. All results have been adjusted by subtracting the fluorescence from tissue from untreated rats. […]
All animal studies were carried out under the supervision of MIT’s Division of Comparative Medicine and in compliance with NIH’s Principles of Laboratory Animal Care, following the guidelines set forth by MIT’s Committee on Animal Care. Sprague–Dawley rats (200–300 g, a mix of male and female) were obtained from Charles River Laboratories and allowed to acclimate to their new conditions for 1 week, following which their diet was adjusted to an alfalfa-free diet (AIN-93M, TestDiet) for at least 7 days prior to the study in order to reduce background fluorescence. […]

MUC5AC [3] = biological target: T1, MUC5AC (Homo sapiens, UniProt P98088); experiment: Phage display (CX7C library) against MUC5AC, Sanger sequencing; type: binding; conditions: MUC5AC phage screening, third round of panning, 16 sequenced candidates
Procedure: For each mucin of interest, 5 μg of mucin protein was diluted in 150 μL of Tris-buffered saline (TBS) and added to 2 wells of a microtiter plate. The plate was left overnight in a humidified, sealed container with agitation at 50 rpm. After the overnight mucin coating, the solution was poured out, and 300 μL of blocking buffer was added to the wells for 1 h. After the 1 h waiting period, the blocking buffer was poured out, and the wells were washed three times with 300 μL of Tris-buffered saline with TBST (TBS + 0.1% (v/v) Tween-20) to remove nonspecific binding on the mucin layer coating. Next, 5 μL of the C7C library diluted with 95 μL of TBST was added to each blocked well and placed on shaker for 45 min, before pouring out the nonbinding phage and washing the plate ten times with TBST. A 0.2 M glycine-HCl elution buffer (pH 2.2, 100 μL) was added to each well and placed on a shaker for 20 min to release the mucin-layer binding peptides on the plate as unamplified eluate, with the pH neutralized by 30 μL of neutralization buffer (1 M Tris-HCl, pH 9).
E. coli liquid cultures were prepared by adding E. coli cells to 20 mL of LB media and placing them in shaking conditions at 37 °C and 250 rpm for 2 h and 45 min. The unamplified eluate (1 μL of which was saved for titering) was added to the E. coli cultures under the same conditions for 4 h and 45 min for amplification. […]

MUC5AC [4] = biological target: T1, MUC5AC; experiment: Phage ELISA on MUC5AC; type: binding; conditions: phage clones displaying the peptide, 10^7 PFU/μL, MUC5AC-coated plate, anti-M13/HRP, TMB, 450 nm, blank subtracted, three wells; vs random library and insertless phage
Source text: We next sought to validate the binding efficiency of these identified phage clones. We tested phage clones displaying peptides M2.1, M2.2, M2.3, and M2.4 for binding to MUC2, and phage clones displaying peptides M5.1, M5.2, M5.3, and M5.4 for binding to MUC5AC. We utilized a bacteriophage enzyme-linked immunosorbent assay to test the binding of the peptide hits to the specific target mucins, MUC2 and MUC5AC (Figure 2d). The spectrophotometer reported absorbance values at 450 nm. The intensity of the absorbance signal is proportional to the amount of peptide-mucin binding present in each sample. The negative controls (library samples and insertless samples) served as references for nonspecific binding.
First, mucin was coated onto the surface of a plastic plate overnight using the same process as that performed for the original phage display. The next morning, three wells of each phage clone were prepared, with each phage solution having a titer of 10^7 PFU/μL to ensure a fair comparison between the clones. […]
However, instead of eluting the bound phage, 100 μL of 1:2000 anti-M13/HRP mouse monoclonal antibody was added to each well, and the antibody was allowed to incubate with the wells for 30 min. […] The resulting solutions were analyzed by absorbance spectroscopy at a wavelength of 450 nm to determine the relative amount of phage present in each well.

[5] = scaled between free AF647 (0) and WGA-AF647 (1), mean across trials n = 3

Row | Substance | Overall nanoparticle “score” [1, 5] | Selectivity ([1]; score for MUC2 tissue / sum of scores for all mucins, n = 3) | Overall nanoparticle “score” [2, 5] | Selectivity ([2]; score for MUC5AC tissue / sum of scores for all mucins, n = 3) | selectivity for the small intestine vs controls (small intestine) | % Prevalence (MUC5AC [3]) [%] | phage ELISA binding vs negative controls (MUC5AC [4])
1 | Alexa Fluor 647-conjugated wheat germ agglutinin [WGA] | 1 | 0.333 | 1 | 0.333 | did not demonstrate a significant improvement over the free dye |  | 
2 | CSSASVEWC (disulfide 1-9 (inferred)) [Peptide M5.4, CX7C cyclic peptide hit for MUC5AC; AF647 conjugated at N-terminus in ex vivo tests] |  |  |  |  |  | 6.25 | significantly greater binding to MUC5AC than the random library and insertless phage
